Assay results as given in patent US6486098B1, “Herbicidal phenoxypropionic acid N-alkyl-N-2-fluorophenyl amide compounds” (Dongbu Hannong Chemical Co. Ltd., priority 1999, dated 2002).

Columns and labels:
DIGSA (Large crabgrass) = assay: Leaf treatment test, large crabgrass; format: in vivo, Digitaria Sanguinalis (L.) SCOP; settings: 14 days after treatment
Description: (§1) Seeds of rice, wheat, barley, corn, cotton, barnyard grass, common sorgum, large crabgrass and fall panicum were seeded at a pot with a surface area of 600 cm^2. […] 14 days after the treatment, the degree of damage to the plants was rated in % damage in comparison to the development of untreated control.

SORBI (Common sorgum) = assay: Leaf treatment test, common sorgum; format: in vivo, Andropogon sorghum; settings: 14 days after treatment
Description: as §1

GLXMA (Soy bean) = assay: Leaf treatment test, soy bean; format: in vivo, Glycine max (L.) MERR; settings: 14 days after treatment
ZEAMX (Corn) = assay: Leaf treatment test, corn; format: in vivo, Zea mays L.; settings: 14 days after treatment
Description: as §1

TRZAW (Wheat) = assay: Leaf treatment test, wheat; format: in vivo, Triticum aestivum L.; settings: 14 days after treatment
Description: as §1

ORYSA (Rice) = assay: Leaf treatment test, rice; format: in vivo, Oryza sativa L. cv. Dongjin; settings: 14 days after treatment
Description: as §1

PANDI (Fall panicum) = assay: Leaf treatment test, fall panicum; format: in vivo, Panicum dichotomiflorum Michx; settings: 14 days after treatment
Description: as §1

GOSHI (Cotton) = assay: Leaf treatment test, cotton; format: in vivo, Gossypium; settings: 14 days after treatment
Description: as §1

ECHCG (Barnyard grass) = assay: Leaf treatment test, barnyard grass; format: in vivo, Echinochloa crus-galli Beauv. var. caudata Kitagawa; settings: leaf treatment at three leaves, 14 days after treatment
Description: as §1

| Compound | degree of damage to the plants (% damage) (DIGSA (Large crabgrass); treated amount 0.025 kg/ha) [%] | degree of damage to the plants (% damage) (DIGSA (Large crabgrass); treated amount 0.1 kg/ha) [%] | degree of damage to the plants (% damage) (DIGSA (Large crabgrass); treated amount 0.4 kg/ha) [%] | degree of damage to the plants (% damage) (SORBI (Common sorgum); treated amount 0.025 kg/ha) [%] | degree of damage to the plants (% damage) (SORBI (Common sorgum); treated amount 0.1 kg/ha) [%] | degree of damage to the plants (% damage) (SORBI (Common sorgum); treated amount 0.4 kg/ha) [%] | degree of damage to the plants (% damage) (GLXMA (Soy bean); treated amount 0.025 kg/ha) [%] | degree of damage to the plants (% damage) (GLXMA (Soy bean); treated amount 0.1 kg/ha) [%] | degree of damage to the plants (% damage) (GLXMA (Soy bean); treated amount 0.4 kg/ha) [%] | degree of damage to the plants (% damage) (ZEAMX (Corn); treated amount 0.025 kg/ha) [%] | degree of damage to the plants (% damage) (ZEAMX (Corn); treated amount 0.1 kg/ha) [%] | degree of damage to the plants (% damage) (ZEAMX (Corn); treated amount 0.4 kg/ha) [%] | degree of damage to the plants (% damage) (TRZAW (Wheat); treated amount 0.025 kg/ha) [%] | degree of damage to the plants (% damage) (TRZAW (Wheat); treated amount 0.1 kg/ha) [%] | degree of damage to the plants (% damage) (TRZAW (Wheat); treated amount 0.4 kg/ha) [%] | degree of damage to the plants (% damage) (ORYSA (Rice); treated amount 0.025 kg/ha) [%] | degree of damage to the plants (% damage) (ORYSA (Rice); treated amount 0.1 kg/ha) [%] | degree of damage to the plants (% damage) (ORYSA (Rice); treated amount 0.4 kg/ha) [%] | degree of damage to the plants (% damage) (PANDI (Fall panicum); treated amount 0.1 kg/ha) [%] | degree of damage to the plants (% damage) (PANDI (Fall panicum); treated amount 0.4 kg/ha) [%] | further results |
| --- | --- | --- | --- | --- | --- | --- | --- | --- | --- | --- | --- | --- | --- | --- | --- | --- | --- | --- | --- | --- | --- |
| Cc1ccc(F)c(N(C)C(=O)C(C)Oc2ccc(Oc3nc4ccc(Cl)cc4o3)cc2)c1 (centres unmarked) [Compound No. 7] | 100 | 100 | 100 | 10 | 95 | 100 | 0 | 0 | 10 | 0 | 0 | 0 | 0 | 0 | 0 | 0 | 0 | 0 | 100 | 100 | degree of damage to the plants (% damage) (PANDI (Fall panicum); treated amount 0.025 kg/ha): 100%; degree of damage to the plants (% damage) (GOSHI (Cotton); treated amount 0.025 kg/ha): 0%; degree of damage to the plants (% damage) (GOSHI (Cotton); treated amount 0.1 kg/ha): 0%; degree of damage to the plants (% damage) (GOSHI (Cotton); treated amount 0.4 kg/ha): 0%; degree of damage to the plants (% damage) (ECHCG (Barnyard grass); treated amount 0.025 kg/ha): 20%; degree of damage to the plants (% damage) (ECHCG (Barnyard grass); treated amount 0.1 kg/ha): 40%; degree of damage to the plants (% damage) (ECHCG (Barnyard grass); treated amount 0.4 kg/ha): 40% |
| CC(Oc1ccc(Oc2nc3ccc(Cl)cc3o2)cc1)C(=O)N(C)c1ccc(Cl)cc1F (centres unmarked) [Compound No. 8] | 30 | 95 | 100 | 0 | 70 | 100 | 0 | 0 | 0 | 0 | 0 | 0 | 0 | 0 | 0 | 0 | 0 | 0 | 0 | 100 | degree of damage to the plants (% damage) (PANDI (Fall panicum); treated amount 0.025 kg/ha): 0%; degree of damage to the plants (% damage) (GOSHI (Cotton); treated amount 0.025 kg/ha): 0%; degree of damage to the plants (% damage) (GOSHI (Cotton); treated amount 0.1 kg/ha): 0%; degree of damage to the plants (% damage) (GOSHI (Cotton); treated amount 0.4 kg/ha): 0%; degree of damage to the plants (% damage) (ECHCG (Barnyard grass); treated amount 0.025 kg/ha): 0%; degree of damage to the plants (% damage) (ECHCG (Barnyard grass); treated amount 0.1 kg/ha): 0%; degree of damage to the plants (% damage) (ECHCG (Barnyard grass); treated amount 0.4 kg/ha): 70% |
| CC(Oc1ccc(Oc2nc3ccc(Cl)cc3o2)cc1)C(=O)N(C)c1cc(F)ccc1F (centres unmarked) [Compound No. 9] | 100 | 100 | 100 | 90 | 100 | 100 | 0 | 0 | 0 | 0 | 0 | 100 | 0 | 0 | 0 | 0 | 0 | 20 | 100 | 100 | degree of damage to the plants (% damage) (PANDI (Fall panicum); treated amount 0.025 kg/ha): 90%; degree of damage to the plants (% damage) (GOSHI (Cotton); treated amount 0.025 kg/ha): 0%; degree of damage to the plants (% damage) (GOSHI (Cotton); treated amount 0.1 kg/ha): 0%; degree of damage to the plants (% damage) (GOSHI (Cotton); treated amount 0.4 kg/ha): 0%; degree of damage to the plants (% damage) (ECHCG (Barnyard grass); treated amount 0.025 kg/ha): 70%; degree of damage to the plants (% damage) (ECHCG (Barnyard grass); treated amount 0.1 kg/ha): 80%; degree of damage to the plants (% damage) (ECHCG (Barnyard grass); treated amount 0.4 kg/ha): 80% |
| Cc1ccc(N(C)C(=O)C(C)Oc2ccc(Oc3nc4ccc(Cl)cc4o3)cc2)c(F)c1 (centres unmarked) [Compound No. 10] | 70 | 95 | 100 | 30 | 60 | 100 | 0 | 0 | 0 | 0 | 0 | 0 | 0 | 0 | 0 | 0 | 0 | 0 | 0 | 70 | degree of damage to the plants (% damage) (PANDI (Fall panicum); treated amount 0.025 kg/ha): 0%; degree of damage to the plants (% damage) (GOSHI (Cotton); treated amount 0.025 kg/ha): 0%; degree of damage to the plants (% damage) (GOSHI (Cotton); treated amount 0.1 kg/ha): 0%; degree of damage to the plants (% damage) (GOSHI (Cotton); treated amount 0.4 kg/ha): 0%; degree of damage to the plants (% damage) (ECHCG (Barnyard grass); treated amount 0.025 kg/ha): 0%; degree of damage to the plants (% damage) (ECHCG (Barnyard grass); treated amount 0.1 kg/ha): 0%; degree of damage to the plants (% damage) (ECHCG (Barnyard grass); treated amount 0.4 kg/ha): 80% |
| COc1ccc(N(C)C(=O)C(C)Oc2ccc(Oc3nc4ccc(Cl)cc4o3)cc2)c(F)c1 (centres unmarked) [Compound No. 11] | 95 | 95 | 95 | 0 | 20 | 70 | 0 | 0 | 0 | 0 | 0 | 0 | 0 | 0 | 0 | 0 | 0 | 0 | 20 | 40 | degree of damage to the plants (% damage) (GOSHI (Cotton); treated amount 0.025 kg/ha): 0%; degree of damage to the plants (% damage) (GOSHI (Cotton); treated amount 0.1 kg/ha): 0%; degree of damage to the plants (% damage) (GOSHI (Cotton); treated amount 0.4 kg/ha): 0%; degree of damage to the plants (% damage) (ECHCG (Barnyard grass); treated amount 0.025 kg/ha): 0%; degree of damage to the plants (% damage) (ECHCG (Barnyard grass); treated amount 0.1 kg/ha): 0%; degree of damage to the plants (% damage) (ECHCG (Barnyard grass); treated amount 0.4 kg/ha): 40% |
